US10335409B2 (priority 2012, dated 2019)
Read-outs that look alike come from different tables or passages of the source.

How the values were obtained:
Assay type in all cases: cell-based, hepatitis C virus
[1] = test system: genotype 3a (S52) stable HCV replicon in Huh-7-derived cells; experiment: Stable subgenomic HCV replicon EC50, genotype 3a (Renilla luciferase); details: Hepatitis C virus, 72 h, read-out: EC50 3A RLUC
[2] = test system: genotype 1b NS3/4a protease inhibitor resistant variant D168A transient HCV replicon in Huh-7-derived cells; experiment: Transient-transfected HCV replicon EC50, genotype 1b D168A; details: Hepatitis C virus, 72 h, read-out: EC50 1B D168A, transient-transfected replicon genotype 1b D168A resistant variant, 72 h
[3] = test system: genotype 1a NS3/4a protease inhibitor resistant variant R155K transient HCV replicon in Huh-7-derived cells; experiment: Transient-transfected HCV replicon EC50, genotype 1a R155K; details: Hepatitis C virus, 72 h, read-out: EC50 1A R155K, transient-transfected replicon genotype 1a R155K resistant variant, 72 h
[4] = test system: genotype 1b (Con1) wild type transient HCV replicon in Huh-7-derived cells; experiment: Transient-transfected HCV replicon EC50, genotype 1b wild type; details: Hepatitis C virus, 72 h, read-out: EC50 1B WT
[5] = test system: genotype 1b (Con1) stable HCV replicon in Huh-7-derived cells; experiment: Stable subgenomic HCV replicon EC50, genotype 1b (Renilla luciferase); details: Hepatitis C virus, stable replicon genotype 1b, 72 h, read-out: EC50 1B RLUC
Method in brief: (§1)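 Compounds, three-fold diluted, were applied to Huh-7-derived cells harbouring luciferase replicons (genotype 1a H77, 1b Con1, 2a JFH-1, 4a ED43, with strain-specific adaptive mutations). Seventy-two hours later, intracellular replication was gauged by Renilla luciferase activity and EC50 derived by regression.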

[6] = test system: genotype 3a (S52) wild type transient HCV replicon in Huh-7-derived cells; experiment: Transient-transfected HCV replicon EC50, genotype 3a wild type; details: Hepatitis C virus, 72 h, read-out: EC50 3A WT
[7] = test system: genotype 1a (H77) stable HCV replicon in Huh-7-derived cells; experiment: Stable subgenomic HCV replicon EC50, genotype 1a (Renilla luciferase); details: Hepatitis C virus, stable replicon genotype 1a, 72 h, read-out: EC50 1A RLUC
Method in brief: as §1

[8] = test system: genotype 4a (ED43) stable HCV replicon in Huh-7-derived cells; experiment: Stable subgenomic HCV replicon EC50, genotype 4a (Renilla luciferase); details: Hepatitis C virus, 72 h, read-out: EC50 4A RLUC
Method in brief: as §1

[9] = test system: genotype 1a (H77) wild type transient HCV replicon in Huh-7-derived cells; experiment: Transient-transfected HCV replicon EC50, genotype 1a wild type; details: Hepatitis C virus, 72 h, read-out: EC50 1A WT
[10] = test system: genotype 2a (JFH-1) stable HCV replicon in Huh-7-derived cells; experiment: Stable subgenomic HCV replicon EC50, genotype 2a (Renilla luciferase); details: Hepatitis C virus, stable replicon genotype 2a, 72 h, read-out: EC50 2A RLUC
Method in brief: as §1

[11] = transient-transfected replicon genotype 1b wild type
[12] = transient-transfected replicon genotype 3a wild type
[13] = transient-transfected replicon genotype 1a wild type

Row | Structure (SMILES) | EC50 [1] | EC50 [2] | EC50 [3] | EC50 [4, 11] | EC50 [5] | EC50 [6, 12] | EC50 [7] | EC50 [8] | EC50 [9, 13] | EC50 [10] | EC50 [4] | EC50 [6] | EC50 [9]
1 | CC[C@@H]1[C@@H]2CN(C(=O)[C@H](C(C)(C)C)NC(=O)O[C@@H]3C[C@H]3CCCCCc3nc4ccc(OC)cc4nc3O2)[C@@H]1C(=O)N[C@]1(C(=O)NS(=O)(=O)C2(C)CC2)C[C@H]1CC [Example 4, (1aR,5S,8S,9S,10R,22aR)-5-tert-butyl-9-ethyl-N-[(1R,2R)-2-ethyl-1-{[(1-methylcyclopropyl)sulfonyl]carbamoyl}cyclopropyl]-14-methoxy-3,6-dioxo-1,1a,3,4,5,6,9,10,18,19,20,21,22,22a-tetradecahydro-8H-7,10-methanocyclopropa[18,19][1,10,3,6]dioxadiazacyclononadecino[11,12-b]quinoxaline-8-carboxamide] | 271 nM | 66 nM | 20 nM | 6.5 nM | 9.6 nM | 68 nM | 10.7 nM | 7.9 nM | 7.1 nM | 16 nM |  |  | 
2 | COc1ccc2nc3c(nc2c1)O[C@H]1CN(C(=O)[C@H](C(C)(C)C)NC(=O)O[C@H]2CC4CC(C4)[C@@H]2CCCCC3)[C@H](C(=O)N[C@]2(C(=O)NS(=O)(=O)C3CC3)C[C@H]2C(F)F)[C@@H]1C [Example 72, (4aS,8S,11S,12S,13R,25aS)-8-tert-butyl-N-[(1R,2R)-1-[(cyclopropylsulfonyl)carbamoyl]-2-(difluoromethyl)cyclopropyl]-17-methoxy-12-methyl-6,9-dioxo-2,3,4,4a,6,7,8,9,12,13,21,22,23,24,25,25a-hexadecahydro-1H,11H-1,3:10,13-dimethanoquinoxalino[2,3-k][1,10,3,6]benzodioxadiazacyclononadecine-11-carboxamide] | 1820 nM | 687 nM | 227 nM | 165 nM | 300 nM | 642 nM | 365 nM | 383 nM | 600 nM | 740 nM |  |  | 
3 | CC[C@@H]1[C@@H]2CN(C(=O)[C@H](C(C)(C)C)NC(=O)O[C@@H]3C[C@H]3CCCCCc3nc4ccc(OC)cc4nc3O2)[C@@H]1C(=O)N[C@]1(C(=O)NS(=O)(=O)C2(C)CC2)C[C@H]1C [Example 73, (1aR,5S,8S,9S,10R,22aR)-5-tert-butyl-9-ethyl-14-methoxy-N-[(1R,2R)-2-methyl-1-{[(1-methylcyclopropyl)sulfonyl]carbamoyl}cyclopropyl]-3,6-dioxo-1,1a,3,4,5,6,9,10,18,19,20,21,22,22a-tetradecahydro-8H-7,10-methanocyclopropa[18,19][1,10,3,6]dioxadiazacyclononadecino[11,12-b]quinoxaline-8-carboxamide] | 178 nM | 75 nM | 25 nM | 6.2 nM | 7.5 nM | 45 nM | 7.9 nM | 7.2 nM | 8.8 nM | 22 nM |  |  | 
4 | COc1ccc2nc3c(nc2c1)O[C@H]1CN(C(=O)[C@H](C(C)(C)C)NC(=O)O[C@@H]2C[C@@H]4C[C@@H]4[C@H]2CCCCC3)[C@H](C(=O)N[C@]2(C(=O)NS(=O)(=O)C3CC3)C[C@H]2CC(F)F)[C@@H]1C [Example 57, (1aS,2aR,6S,9S,10S,11R,23aR,23bS)-6-tert-butyl-N-[(1R,2S)-1-[(cyclopropylsulfonyl)carbamoyl]-2-(2,2-difluoroethyl)cyclopropyl]-15-methoxy-10-methyl-4,7-dioxo-1a,2,2a,4,5,6,7,10,11,19,20,21,22,23,23a,23b-hexadecahydro-1H,9H-8,11-methanocyclopropa[4′,5′]cyclopenta[1′,2′:18,19][1,10,3,6]dioxadiazacyclononadecino[11,12-b]quinoxaline-9-carboxamide] | 166 nM | 48 nM | 17 nM |  | 11 nM |  | 12 nM | 4.9 nM |  | 21 nM | 7.5 nM | 54 nM | 12 nM
5 | COc1ccc2nc3c(nc2c1)O[C@H]1CN(C(=O)[C@H](C(C)(C)C)NC(=O)O[C@@H]2C[C@@H]4C[C@@H]4[C@H]2CCCCC3(F)F)[C@H](C(=O)N[C@]2(C(=O)NS(=O)(=O)C3(C)CC3)C[C@H]2C(F)F)[C@@H]1C [Example 81, (1aS,2aR,6S,9S,10S,11R,23aR,23bS)-6-tert-butyl-N-[(1R,2R)-2-(difluoromethyl)-1-{[(1-methylcyclopropyl)sulfonyl]carbamoyl}cyclopropyl]-19,19-difluoro-15-methoxy-10-methyl-4,7-dioxo-1a,2,2a,4,5,6,7,10,11,19,20,21,22,23,23a,23b-hexadecahydro-1H,9H-8,11-methanocyclopropa[4′,5′]cyclopenta[1′,2′:18,19][1,10,3,6]dioxadiazacyclononadecino[11,12-b]quinoxaline-9-carboxamide] | 12 nM | 2.7 nM | 2.5 nM | 2.4 nM | 3.6 nM | 4.3 nM | 4 nM | 4.3 nM | 3.7 nM | 3.6 nM |  |  | 
6 | C=C[C@@H]1C[C@]1(NC(=O)[C@@H]1[C@H](C)[C@@H]2CN1C(=O)[C@H](C(C)(C)C)NC(=O)O[C@@H]1C[C@H]1CCCCCc1nc3ccc(OC)cc3nc1O2)C(=O)NS(=O)(=O)C1CC1 [Example 48, (1aR,5S,8S,9S,10R,22aR)-5-tert-butyl-N-{(1R,2S)-1-[(cyclopropylsulfonyl)carbamoyl]-2-ethenylcyclopropyl}-14-methoxy-9-methyl-3,6-dioxo-1,1a,3,4,5,6,9,10,18,19,20,21,22,22a-tetradecahydro-8H-7,10-methanocyclopropa[18,19][1,10,3,6]dioxadiazacyclononadecino[11,12-b]quinoxaline-8-carboxamide] | 73 nM | 6.5 nM | 4 nM |  | 1.8 nM |  | 2 nM | 2.2 nM |  | 9.7 nM | 1.1 nM | 13 nM | 1.7 nM
7 | CC[C@@H]1[C@@H]2CN(C(=O)[C@H](C(C)(C)C)NC(=O)O[C@@H]3C[C@H]3CCCCC(F)(F)c3nc4ccc(OC)cc4nc3O2)[C@@H]1C(=O)N[C@]1(C(=O)NS(=O)(=O)C2(C)CC2)C[C@H]1CC(F)F [Example 35, (1aR,5S,8S,9S,10R,22aR)-5-tert-butyl-N-[(1R,2S)-2-(2,2-difluoroethyl)-1-{[(1-methylcyclopropyl)sulfonyl]carbamoyl}cyclopropyl]-9-ethyl-18,18-difluoro-14-methoxy-3,6-dioxo-1,1a,3,4,5,6,9,10,18,19,20,21,22,22a-tetradecahydro-8H-7,10-methanocyclopropa[18,19][1,10,3,6]dioxadiazacyclononadecino[11,12-b]quinoxaline-8-carboxamide] | 162 nM | 38 nM | 17 nM | 10 nM | 11 nM | 35 nM | 9.1 nM | 7.6 nM | 12 nM | 7.4 nM |  |  | 
8 | CC[C@@H]1[C@@H]2CN(C(=O)[C@H](C(C)(C)C)NC(=O)O[C@]3(C)CCC[C@H]3CCCCCc3nc4ccc(OC)cc4nc3O2)[C@@H]1C(=O)N[C@]1(C(=O)NS(=O)(=O)C2CC2)C[C@H]1C(F)F [Example 40, (3aR,7S,10S,11S,12R,24aR)-7-tert-butyl-N-[(1R,2R)-1-[(cyclopropylsulfonyl)carbamoyl]-2-(difluoromethyl)cyclopropyl]-11-ethyl-16-methoxy-3a-methyl-5,8-dioxo-1,2,3,3a,5,6,7,8,11,12,20,21,22,23,24,24a-hexadecahydro-10H-9,12-methanocyclopenta[18,19][1,10,3,6]dioxadiazacyclononadecino[11,12-b]quinoxaline-10-carboxamide] | 360 nM | 129 nM | 74 nM | 8.6 nM | 22 nM | 156 nM | 25 nM | 18 nM | 17 nM | 48 nM |  |  | 
